In patent US10729674B2, “Nanoparticle isoflavone compositions and methods of making and using the same” (Humanetics Corporation, priority 2010, dated 2020):

Legend:
[1] = Pharmacokinetics and excretion in mice after IV or IM 14C-Genistein (Example 8); type: in vivo; settings: for Bioavailibility / AUC0-inf / AUC0-tlast / Cmax / Extrapolation / ke1 / tlast: male CD1 mice, total radioactivity; for Bioavailibility: Group 2 single IM 200 mg/kg vs IV; for Excretion recovery: by 168 hours post dose
Method: As shown in the results of Table 10, male CD1 mice were administered a single IM dose (Group 2, nominal 200 mg/kg) or a single IV bolus dose (Group 3, nominal 50 mg/kg) of ^14C-Genistein. The genistein formulation used was a suspension formulation that includes genistein suspended in sterile water with 0.2% (w/w) Polysorbate 80 and 5% (w/w) PVP K17. […] Following dosing, the content and concentration of radioactivity in blood, plasma, excreta and carcass, and the non-compartmental pharmacokinetics of total radioactivity in whole blood and plasma were determined, Following dose administration, the extent and severity of any clinical signs was assessed.
(§1) Whole-blood samples were collected and plasma was obtained by centrifugation. The concentration of radioactivity in whole-blood and plasma was measured by liquid scintillation spectroscopy.

[2] = Radiochemical stability of the test article in dose formulations; type: physicochemical; settings: for mean stability value (radiochemical): dog study; for mean radiochemical stability: mouse study
Method: The concentration of radioactivity in both dose formulations was measured pre and post dose by liquid scintillation spectroscopy and was similar on both occasions. The radiochemical stability of the test article in both dose formulations was assessed prior to and following the administration of the dose. The mean radiochemical stability of the test article in the dose formulation samples from the intramuscular dose formulation (Group 2) were 98.5% and 98.2%, respectively. The mean radiochemical stability values for pre and post dose samples from the intravenous dose formulation (Group 3) were 98.3% and 98.5%, respectively. Therefore, the ^14C-Genistein in both formulations was considered to have been radiochemically stable throughout the dosing period.
(§2) Male Beagle dogs were administered a single IV bolus dose (Group 1, nominal 20 mg/kg) or a single IM dose (Group 2, nominal 20 mg/kg) of 14C-Genistein (results shown in Table 11). The Genistein suspension formulation used was prepared as described in Example 8, Following dosing, the content and concentration of radioactivity in blood, plasma and excreta, and the non-compartmental pharmacokinetics of total radioactivity in whole blood and plasma were determined. The concentration of radioactivity in both dose formulations was measured pre and post dose by liquid scintillation spectroscopy and was similar on both occasions. The radiochemical stability of the test article in both dose formulations was assessed prior to and following the administration of the dose. The mean stability values for pre and post dose samples from the intravenous dose formulation (Group 1) were 100% and 99.6%, respectively. The mean stability values for pre and post dose samples from the intramuscular dose formulation (Group 2) were 99.2% and 98.9%, respectively. Therefore, the ^14C-Genistein in both formulations was considered to have been radiochemically stable throughout the dosing period.

[3] = Pharmacokinetics and excretion in Beagle dogs after IV or IM 14C-Genistein (Example 9); type: in vivo; settings: for AUC0-inf / AUC0-tlast / Cmax / Extrapolation / ke1 / tlast / Bioavailibility: male Beagle dogs, total radioactivity; for Bioavailibility: Group 2 single IM 20 mg/kg vs IV, from AUC0-tlast
Method: as §2, §1

[4] = Group 2 single IM 200 mg/kg, blood
[5] = Group 2 single IM 200 mg/kg, plasma
[6] = Group 3 single IV bolus 50 mg/kg, blood
[7] = Group 3 single IV bolus 50 mg/kg, plasma
[8] = Group 1 single IV bolus 20 mg/kg, blood
[9] = Group 1 single IV bolus 20 mg/kg, plasma
[10] = Group 2 single IM 20 mg/kg, blood
[11] = Group 2 single IM 20 mg/kg, plasma

O=c1c(-c2ccc(O)cc2)coc2cc(O)cc(O)c12 [14C-Genistein]
treatment-related clinical signs ([1]; main study male mice, single IM 200 mg/kg or single IV 50 mg/kg): No treatment-related clinical signs were observed | Bioavailibility ([1]; blood): 49.7% | Bioavailibility ([1]; plasma): 83.5% | AUC0-inf [1, 4]: 223 μg eq · h/mL | AUC0-tlast [1, 4]: 222 μg eq · h/mL | Cmax [1, 4]: 33.3 μg eq/mL | Extrapolation [1, 4]: 0.663% | ke1 [1, 4]: 0.0242 h⁻¹ | tlast [1, 4]: 168 h | AUC0-inf [1, 5]: 387 μg eq · h/mL | AUC0-tlast [1, 5]: 375 μg eq · h/mL | Cmax [1, 5]: 63.1 μg eq/mL | Extrapolation [1, 5]: 3.18% | ke1 [1, 5]: 0.0145 h⁻¹ | tlast [1, 5]: 168 h | AUC0-inf [1, 6]: 112 μg eq · h/mL | AUC0-tlast [1, 6]: 99.7 μg eq · h/mL | Cmax [1, 6]: 60.1 μg eq/mL | Extrapolation [1, 6]: 11.4% | ke1 [1, 6]: 0.0118 h⁻¹ | tlast [1, 6]: 168 h | AUC0-inf [1, 7]: 116 μg eq · h/mL | AUC0-tlast [1, 7]: 116 μg eq · h/mL | Cmax [1, 7]: 108 μg eq/mL | Extrapolation [1, 7]: 0.191% | ke1 [1, 7]: 0.0307 h⁻¹ | tlast [1, 7]: 168 h | tolerability of dose level ([1]; mice, 200 mg/kg (IM) and 50 mg/kg (IV)): well tolerated | Blood to plasma ratios ([1]; mice, Group 2 IM 200 mg/kg, any time post dose): less than 1 | time post dose of highest mean concentration of radioactivity in plasma and whole blood ([1]; mice, Group 2 IM 200 mg/kg, first time point analyzed): 30 min | Excretion recovery ([1]; mice, Group 2 IM): ~92% | blood-to-plasma ratios ([1]; mice, Group 3 IV 50 mg/kg, 0 to 24 hours): less than 1 | time post dose of highest mean concentration of radiolabelled material in plasma and whole blood ([1]; mice, Group 3 IV 50 mg/kg, first time point analyzed): 30 min | Excretion recovery ([1]; mice, Group 3 IV): approximately 93% | time within which the majority of the dose administered was excreted ([1]; mice, both dose routes): ≤ 24 h | mean stability value (radiochemical) ([2]; intramuscular dose formulation (Group 2), post dose): 98.9% | mean stability value (radiochemical) ([2]; intramuscular dose formulation (Group 2), pre dose): 99.2% | mean stability value (radiochemical) ([2]; intravenous dose formulation (Group 1), post dose): 99.6% | mean stability value (radiochemical) ([2]; intravenous dose formulation (Group 1), pre dose): 100% | mean radiochemical stability ([2]; intramuscular dose formulation (Group 2), following dosing): 98.2% | mean radiochemical stability ([2]; intramuscular dose formulation (Group 2), prior to dosing): 98.5% | mean radiochemical stability ([2]; intravenous dose formulation (Group 3), post dose): 98.5% | mean radiochemical stability ([2]; intravenous dose formulation (Group 3), pre dose): 98.3% | Excretion recovery by 168 hours post dose ([3]; dogs, Group 1 IV): approximately 87.9% | Blood to plasma ratios ([3]; dogs, Group 1 IV bolus 20 mg/kg): less than 1 | time post dose of highest mean concentration of radiolabelled material in plasma and whole blood ([3]; dogs, Group 1 IV bolus 20 mg/kg, first time point analyzed): 15 min | Excretion recovery by 168 hours post dose ([3]; dogs, Group 2 IM): ~85.8% | time post dose of highest mean concentration of radioactivity in plasma and whole blood ([3]; dogs, Group 2 IM 20 mg/kg): 2 h | Blood to plasma ratios ([3]; dogs, Group 2 IM 20 mg/kg, any time post dose): less than 1 | Clinical signs ([3]; dogs, IV bolus 20 mg/kg and IM 20 mg/kg, considered to be dose-related): Clinical signs were observed in both groups | excretion mass balance ([3]; dogs, both dose routes): greater than 85% | time within which the majority of the dose administered was excreted ([3]; dogs, both dose routes): ≤ 48 h | overall mean excretion mass balance of radioactivity ([3]; dogs, both groups): 86-88 % of the administered dose | AUC0-inf [3, 8]: 122 μg eq · h/mL | AUC0-tlast [3, 8]: 117 μg eq · h/mL | Cmax [3, 8]: 40.4 μg eq/mL | Extrapolation [3, 8]: 16.8% | ke1 [3, 8]: 0.0130 h⁻¹ | tlast [3, 8]: 120 h | AUC0-inf [3, 9]: 227 μg eq · h/mL | AUC0-tlast [3, 9]: 201 μg eq · h/mL | Cmax [3, 9]: 94.4 μg eq/mL | Extrapolation [3, 9]: 11.3% | ke1 [3, 9]: 0.0138 h⁻¹ | tlast [3, 9]: 120 h | Bioavailibility ([3]; blood): 92.9% | Bioavailibility ([3]; plasma): 96.1% | AUC0-tlast [3, 10]: 108 μg eq · h/mL | Cmax [3, 10]: 5.39 μg eq/mL | tlast [3, 10]: 168 h | AUC0-inf [3, 11]: 228 μg eq · h/mL | AUC0-tlast [3, 11]: 193 μg eq · h/mL | Cmax [3, 11]: 10.9 μg eq/mL | Extrapolation [3, 11]: 15.1% | ke1 [3, 11]: 0.0092 h⁻¹ | tlast [3, 11]: 168 h
